Several values for one entry are separate records, joined by “and”; a condition that tells them apart may be missing. Equal entries are not always repeated.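 Five concentrations, 48 hours, 96-well plates. GI50 = concentration required for 50% inhibition of growth. TGI denotes the concentration required for complete inhibition of growth.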
Tests used:
Test in all cases: NCI-60 cell line screen, 48 h
[1] = tested on: HS 578T breast
[2] = tested on: MALME-3M melanoma
[3] = tested on: MDA-MB-231 breast
[4] = tested on: NCI-H23 lung
[5] = tested on: OVCAR-3 ovarian
[6] = tested on: PC-3 prostate
[7] = tested on: RPMI-8226 leukemia
[8] = tested on: SK-MEL-2 melanoma
[9] = tested on: SK-MEL-28 melanoma
[10] = tested on: U251 CNS

Row | SMILES | GI50 [1] [µM] | TGI [1] [µM] | GI50 [2] [µM] | TGI [2] | GI50 [3] [µM] | TGI [3] [µM] | GI50 [4] [µM] | TGI [4] | GI50 [5] [µM] | TGI [5] | GI50 [6] [µM] | TGI [6] [µM] | GI50 [7] [µM] | TGI [7] [µM] | GI50 [8] [µM] | TGI [8] | GI50 [9] [µM] | TGI [9] | GI50 [10] [µM] | TGI [10]
1 | CCn1c(-c2nonc2N)nc2c(C#CC(C)(C)O)nc(OCCNC)cc21 | 6.03 | > 25 | 7.69 | 20.6 µM | 8.9 | > 25 | 8.81 | > 25 µM | 6.16 | 17.7 µM | 6.88 | > 25 | 9.49 | > 25 | 6.64 | 15.4 µM | 8.49 | > 25 µM | 6.5 | > 25 µM
2 | Nc1ccc(C(=O)CC(N)C(=O)O)cc1O (centres undefined) | – | > 100 | – | > 100 µM | – | > 100 | – | > 100 µM | – | > 100 µM | – | > 100 | – | > 100 | – | > 100 µM | – | > 100 µM | – | > 100 µM
3 | CNCCn1c(=O)c2cc(OC)c(OC)cc2c2ccc3cc4c(cc3c21)OCO4 | 0.835 | 8.39 | 0.172 | 0.812 µM | 0.335 | 3.66 | 0.112 | 0.556 µM | 0.162 | 1.25 µM | 0.109 | 6.23 | 0.0842 | 0.376 | 0.533 | 1.53 µM | 0.555 | 2.69 µM | 0.0495 | 1.19 µM
4 | Cc1ccc2nc(-c3ccc(N(C)C)c(Br)c3)cn2c1 | 25.3 | > 100 | > 100 | > 100 µM | > 100 | > 100 | > 100 | > 100 µM | > 100 | > 100 µM | 5.69 | > 100 | 3.93 | > 100 | > 100 | > 100 µM | 10.5 | > 100 µM | 7.19 | > 100 µM
5 | CCOc1cccc(/C=N/NC(=O)C(=O)Nc2cccc(C(F)(F)F)c2)c1O | 12 | > 100 | 4.35 | 64.2 µM | 1.43 | > 100 | 4.57 | > 100 µM | 0.407 | > 100 µM | 1.95 | > 100 | 2.08 | > 100 | 5.3 | > 100 µM | 5.51 | > 100 µM | 1.46 | > 100 µM
6 | Cc1sc2nc3c4ccccc4c(NCCCN(C)C)nn3c(=O)c2c1C | 3.15 | 17.5 | 1.97 | 4.96 µM | 2.15 | 7.53 | 8.45 | 23 µM | 11.3 | 24.3 µM | 11.5 | 24.2 | 4.8 | 11.7 | 20 | 39.7 µM | 1.73 | 3.21 µM | 6.66 | 20 µM
7 | COc1cc(/C=C2\C(=O)Nc3ccc(N(C)C)cc32)cc(OC)c1OC | 3.89 | > 100 | 3.23 | > 30.2 µM | 4.26 | > 63.8 | 3.07 | > 100 µM | 1.41 | 4.29 µM | 1.73 | > 100 | 1.11 | 4.14 | 2.77 | 8.31 µM | 5.87 | > 100 µM | 3.1 | 14.6 µM
8 | CCN(CC)C(=S)SC | – | > 100 | – | > 100 µM | – | > 100 | – | > 100 µM | – | > 100 µM | – | > 100 | – | > 100 | – | > 100 µM | – | > 100 µM | – | > 100 µM
9 | CC(CCC(=O)O)C(=O)O (centres undefined) | – | > 100 | – | > 100 µM | – | > 100 | – | > 100 µM | – | > 100 µM | – | > 100 | – | > 100 | – | > 100 µM | – | > 100 µM | – | > 100 µM
10 | Cn1c2c(c3ccc(Cl)c(Cl)c31)C(C#N)C1(CCNCC1)NC2=O (centres undefined) | 1.13 | 3.61 | 1.42 | 3.19 µM | 1.54 | 3.46 | 2.72 | 9.22 µM | 1.42 | 2.9 µM | 1.55 | 4.99 | 1.7 | 3.87 | 2.12 | 4.73 µM | 0.841 | 2.37 µM | 2.94 | 10.7 µM
11 | COc1ccc(Cn2c3c(cc(OS(=O)(=O)C(F)(F)F)c2=O)Cc2ccccc2-3)cc1 | > 100 | > 100 | 20.7 | 50 µM and > 100 µM | 5.26 | > 100 | 8.26 | 50 µM and > 100 µM | 5.12 | 50 µM and > 100 µM | 26.7 | > 100 | – | 50 | 14.5 | 50 µM and > 100 µM | 22.8 | 50 µM and > 100 µM | 6.55 | 50 µM and > 100 µM
